US8591966B2, “Composition containing oils of chamomile flower and black cumin with reduced endotoxins” (Insignion Holdings Limited, priority 2007, dated 2013)
Where two headings read alike, the source gives them in different places.

Experiments:
Type in all cases: cell-based
[1] = test system: glioblastoma cells U-87 MG; experiment: DNA synthesis (3H-thymidine incorporation) in U-87MG; conditions: Homo sapiens, 48 h incubation
Protocol: (§1) ^3H-Thymidine incorporation: DU145 and U-87MG cells were harvested by trypsinisation and seeded at 10,000 cells/well in a 96 well plate. The cells were incubated with the samples at the required concentrations for 24 hrs and/or 48 hrs at 37° C. and 5% CO2. The cells were pulsed with ^3H-Thymidine (1 μCi/ml) (Perkin Elmer) for 24 hours. After which, they were washed with PBS and fixed twice with methanol for 5 min. The protein was precipitated by 0.3N TCA. After a washing step 150 μl 0.3N NaOH was added for 15 min to lyse the cells. Back ground controls were measured with the samples without cells.
(§2) To detect the incorporated ^3H-Thymidine for the DNA synthesis the samples were transferred in scintillation tubes with scintillation cocktail. The quantification was performed in a Tri-Carb 1900 TR liquid scintillation counter (Packard, USA).
(§3) The effect of several concentrations of samples was measured by determining amount of radiolabel (dpm) under the assay conditions. Dose related values were expressed as a percentage of the positive control values. Sample points were measured as quadruplicates, errors are expressed as standard deviations.

[2] = test system: prostate cancer cells DU145; experiment: DNA synthesis (3H-thymidine incorporation) in DU145; conditions: Homo sapiens, DU-145
Protocol: as §1, §2, §3

5-LOX = biological target: T1, 5-LOX (Homo sapiens, UniProt P09917); experiment: 5-LOX inhibition assay (LTB4) in differentiated HL-60 granulocytes; conditions: reference listed under the 5-LOX IC50 table
T1 construct: endogenous in cells; host or cells: HL-60 (human myeloid leukemia, DSMZ ACC 3), differentiated with DMSO
T1 sequence (P09917 1-674): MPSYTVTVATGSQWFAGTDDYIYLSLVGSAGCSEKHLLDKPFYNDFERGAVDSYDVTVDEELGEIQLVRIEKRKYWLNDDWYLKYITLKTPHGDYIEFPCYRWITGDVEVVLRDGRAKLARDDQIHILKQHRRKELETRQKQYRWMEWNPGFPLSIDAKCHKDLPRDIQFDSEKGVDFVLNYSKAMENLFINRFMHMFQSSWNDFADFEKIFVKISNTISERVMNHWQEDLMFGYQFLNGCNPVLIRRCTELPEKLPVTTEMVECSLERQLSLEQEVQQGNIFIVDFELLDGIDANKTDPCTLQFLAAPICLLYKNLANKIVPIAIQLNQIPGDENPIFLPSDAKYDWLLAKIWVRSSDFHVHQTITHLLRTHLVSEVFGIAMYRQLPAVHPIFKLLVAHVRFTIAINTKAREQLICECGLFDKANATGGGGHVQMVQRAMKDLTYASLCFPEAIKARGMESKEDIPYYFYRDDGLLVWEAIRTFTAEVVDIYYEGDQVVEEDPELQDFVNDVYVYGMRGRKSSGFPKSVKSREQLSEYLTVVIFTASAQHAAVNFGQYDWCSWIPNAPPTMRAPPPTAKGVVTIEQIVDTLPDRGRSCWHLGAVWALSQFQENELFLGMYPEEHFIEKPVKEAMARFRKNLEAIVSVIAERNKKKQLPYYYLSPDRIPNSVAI
Protocol: Human HL-60 cells (myeloid leukemia, DSMZ No ACC 3) were kept at 37° C. in a humidified atmosphere with 5% CO2 and cultured in complete RPMI1640 medium supplemented with 10% fetal calf serum and 1% (v/v) penicillin/streptomycin solution. Cells were differentiated for 6 to 8 days with DMSO (1.2% v/v). The 5-LOX activity assay was carried out as described by Bennet et al. [ref: 2]. Briefly, differentiated cells were harvested, suspended in PBS containing Ca^2+ (1 mM) and glucose (1 mM) and distributed into a 96-well microtiter plate (1×10^6 cells/well).
After preincubation with sample or vehicle for 15 min at room temperature the reaction was started by adding calcium ionophore A 23187 (5 uM) and arachidonic acid (10 uM). All values are final concentrations. […] After neutralization with 50 μl PBS and centrifugation (340×g) for 10 min the LTB4 concentration in the supernatant was determined.
Effects of samples and reference compound [ref: 3] on the activity of 5-LOX were measured by determining the quantity of leukotriene B4 produced under assay conditions. The quantification of leukotriene B4 was performed with Enzyme Immuno Assay (EIA) Kit from Cayman No 520111 (LTB4). The optical densities were measured at wavelength=415 nm. The quantities were calculated using a standard curve of at least 5 different concentrations. Sample points were measured as duplicates. […]

IC50 (5-LOX)	SMILES	IC50 [1]	IC50 ([2]; DU145, 24 h incubation, read-out: IC50 (nM) on DNA synthesis, 24 h incubation)	IC50 ([2]; DU145, 48 h incubation, read-out: IC50 (nM) on DNA synthesis, 48 h incubation)
–	CC[C@@]1(O)C(=O)OCc2c1cc1n(c2=O)Cc2cc3ccccc3nc2-1 [Camptothecin]	3.32 nM	152 nM	7.5 nM
0.28 nM	C[C@@H]1C[C@H]2[C@@H]3CCC4=CC(=O)C=C[C@]4(C)[C@@]3(F)[C@@H](O)C[C@]2(C)[C@@]1(O)C(=O)CO [Dexamethasone]	–	–	–
